Experimental data reported in PubChem BioAssay (NCI).
Where “and” joins values, the source holds several entries; their conditions need not be identical. Equal values may be shown once.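 Following 48 hours of exposure in 96-well plates, responses at five concentrations were used to interpolate endpoints linearly. GI50 is the concentration that inhibits growth by half. The concentration for full growth arrest is given as TGI.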

How the values were obtained:
Test in all cases: NCI-60 cell line screen, 48 h
CCRF-CEM leukemia = tested on: CCRF-CEM leukemia
BT-549 breast = tested on: BT-549 breast
HL-60(TB) leukemia = tested on: HL-60(TB) leukemia
IGROV1 ovarian = tested on: IGROV1 ovarian
TK-10 renal = tested on: TK-10 renal
MCF7 breast = tested on: MCF7 breast
A549 NSCLC = tested on: A549 NSCLC
SR leukemia = tested on: SR leukemia
DU-145 prostate = tested on: DU-145 prostate
MDA-MB-231 breast = tested on: MDA-MB-231 breast
RPMI-8226 leukemia = tested on: RPMI-8226 leukemia
UACC-62 melanoma = tested on: UACC-62 melanoma
HOP-62 NSCLC = tested on: HOP-62 NSCLC
A498 renal = tested on: A498 renal
M14 melanoma = tested on: M14 melanoma
HT29 colon = tested on: HT29 colon
NCI-H522 lung = tested on: NCI-H522 lung
786-0 renal = tested on: 786-0 renal
MDA-MB-435 = tested on: MDA-MB-435
COLO 205 colon = tested on: COLO 205 colon
U251 CNS = tested on: U251 CNS
K-562 leukemia = tested on: K-562 leukemia
OVCAR-3 ovarian = tested on: OVCAR-3 ovarian
SF-295 CNS = tested on: SF-295 CNS
SK-MEL-5 melanoma = tested on: SK-MEL-5 melanoma
PC-3 prostate = tested on: PC-3 prostate
NCI-H226 lung = tested on: NCI-H226 lung
OVCAR-4 ovarian = tested on: OVCAR-4 ovarian
OVCAR-5 ovarian = tested on: OVCAR-5 ovarian
NCI/ADR-RES ovarian = tested on: NCI/ADR-RES ovarian
HCC-2998 colon = tested on: HCC-2998 colon
LOX IMVI melanoma = tested on: LOX IMVI melanoma
HCT-116 colon = tested on: HCT-116 colon
T-47D breast = tested on: T-47D breast
HS 578T breast = tested on: HS 578T breast
CAKI-1 renal = tested on: CAKI-1 renal
SN12C renal = tested on: SN12C renal
MOLT-4 leukemia = tested on: MOLT-4 leukemia
SK-OV-3 ovarian = tested on: SK-OV-3 ovarian
UO-31 renal = tested on: UO-31 renal
UACC-257 melanoma = tested on: UACC-257 melanoma
KM12 colon = tested on: KM12 colon
NCI-H23 lung = tested on: NCI-H23 lung
SF-539 CNS = tested on: SF-539 CNS
HOP-92 NSCLC = tested on: HOP-92 NSCLC
RXF 393 renal = tested on: RXF 393 renal
ACHN renal = tested on: ACHN renal
HCT-15 colon = tested on: HCT-15 colon
NCI-H460 lung = tested on: NCI-H460 lung
SW-620 colon = tested on: SW-620 colon
SK-MEL-28 melanoma = tested on: SK-MEL-28 melanoma
SNB-75 CNS = tested on: SNB-75 CNS
SNB-19 CNS = tested on: SNB-19 CNS
EKVX NSCLC = tested on: EKVX NSCLC
SF-268 CNS = tested on: SF-268 CNS
OVCAR-8 ovarian = tested on: OVCAR-8 ovarian

## OCCN1CCN(CCCN2c3ccccc3Sc3ccc(C(F)(F)F)cc32)CC1
CCRF-CEM leukemia
  GI50: 2.59 µM
  TGI: 9.67 µM
BT-549 breast
  GI50: 5.65 µM and 2.92 µM and 3.29 µM
  TGI: 12.1 µM and 17.7 µM and 9.5 µM
HL-60(TB) leukemia
  GI50: 2.52 µM and 11.5 µM and 2.06 µM
  TGI: 9.06 µM and 29.3 µM and 5.56 µM
IGROV1 ovarian
  GI50: 2.57 µM and 11.3 µM and 10.2 µM
  TGI: 9.32 µM and 28.5 µM and 30.1 µM
TK-10 renal
  GI50: 1.48 µM and 8.22 µM and 6.59 µM
  TGI: 4.28 µM and 21.3 µM and 20.1 µM
MCF7 breast
  GI50: 1.2 µM and 6.8 µM and 7.74 µM
  TGI: 2.92 µM and 22.6 µM and 25.1 µM
A549 NSCLC
  GI50: 2.79 µM and 10.8 µM and 9.54 µM
  TGI: 9.84 µM and 24 µM and 22.9 µM
SR leukemia
  GI50: 2.05 µM and 3.56 µM and 1.9 µM
  TGI: 6.46 µM and 13.2 µM and 5.51 µM
DU-145 prostate
  GI50: 6.29 µM and 12.9 µM
  TGI: 12.7 µM and 25.7 µM
MDA-MB-231 breast
  GI50: 1.2 µM and 8.87 µM and 5.68 µM
  TGI: 5.07 µM and 22.8 µM and 18.1 µM
RPMI-8226 leukemia
  GI50: 1.54 µM
  TGI: 4.69 µM
UACC-62 melanoma
  GI50: 0.824 µM and 2.48 µM and 2.08 µM
  TGI: 1.62 µM and 6.83 µM and 4.44 µM
HOP-62 NSCLC
  GI50: 3.11 µM and 13.1 µM and 11.6 µM
  TGI: 9.82 µM and 27.4 µM and 24.7 µM
A498 renal
  GI50: 2.28 µM and 9.65 µM and 10.4 µM
  TGI: 10.3 µM and 23.4 µM and 28.1 µM
M14 melanoma
  GI50: 0.899 µM and 2.34 µM
  TGI: 1.73 µM and 6.13 µM
HT29 colon
  GI50: 0.897 µM and 4.12 µM and 3.23 µM
  TGI: 1.78 µM and 13.9 µM and 11 µM
NCI-H522 lung
  TGI: 3.49 µM and 30.1 µM and 26.8 µM
786-0 renal
  GI50: 3.01 µM and 9.35 µM and 3.81 µM
  TGI: 9.95 µM and 25.9 µM and 20.4 µM
MDA-MB-435
  GI50: 1.14 µM and 3.54 µM and 2.44 µM
  TGI: 3 µM and 14 µM and 7.42 µM
COLO 205 colon
  GI50: 0.795 µM and 2.17 µM and 1.93 µM
  TGI: 1.53 µM and 4.46 µM and 3.59 µM
U251 CNS
  GI50: 1.45 µM and 5.19 µM and 3.66 µM
  TGI: 5.44 µM and 18.4 µM and 14.5 µM
K-562 leukemia
  GI50: 1.27 µM and 3.18 µM and 2.05 µM
  TGI: 2.83 µM and 10.7 µM and 4.73 µM
OVCAR-3 ovarian
  GI50: 4.34 µM and 12.4 µM
  TGI: 10.6 µM and 25.5 µM
SF-295 CNS
  GI50: 1.02 µM and 4.73 µM and 2.41 µM
  TGI: 2.7 µM and 19.2 µM and 6.19 µM
SK-MEL-5 melanoma
  GI50: 0.764 µM and 3.02 µM and 1.98 µM
  TGI: 1.43 µM and 11 µM and 4.8 µM
PC-3 prostate
  GI50: 1.97 µM and 8.77 µM and 10.3 µM
  TGI: 8.14 µM and 21.6 µM and 23 µM
NCI-H226 lung
  GI50: 5.3 µM and 12.7 µM and 12.3 µM
  TGI: 11.8 µM and 27.6 µM and 25.7 µM
OVCAR-4 ovarian
  GI50: 5.29 µM and 10.8 µM and 8.5 µM
  TGI: 11.2 µM and 23.1 µM and 20.9 µM
OVCAR-5 ovarian
  GI50: 5.68 µM and 11.2 µM and 11.5 µM
  TGI: 12.2 µM and 25.3 µM and 25.1 µM
NCI/ADR-RES ovarian
  GI50: 3.28 µM and 10.8 µM and 9.73 µM
  TGI: 10.4 µM and 23.4 µM and 23.5 µM
HCC-2998 colon
  GI50: 0.824 µM and 2.75 µM and 1.97 µM
  TGI: 1.6 µM and 7.99 µM and 4.21 µM
LOX IMVI melanoma
  GI50: 0.898 µM and 5.18 µM and 3.4 µM
  TGI: 2 µM and 18.2 µM and 12.7 µM
HCT-116 colon
  GI50: 1.55 µM
  TGI: 5.52 µM
T-47D breast
  GI50: 1.36 µM and 8.88 µM and 7.46 µM
  TGI: 6.12 µM and 25.8 µM and 22.9 µM
HS 578T breast
  GI50: 1.86 µM and 13.5 µM and 8.23 µM
  TGI: 13.1 µM and 60.6 µM and 41.6 µM
CAKI-1 renal
  GI50: 2.61 µM and 11.3 µM and 6.93 µM
  TGI: 9.5 µM and 25.7 µM and 21.6 µM
SN12C renal
  GI50: 4.49 µM and 11.4 µM and 7.83 µM
  TGI: 11.4 µM and 26.7 µM and 21.8 µM
MOLT-4 leukemia
  GI50: 2.35 µM and 9.23 µM and 2.83 µM
  TGI: 8.44 µM and 27 µM and 8.49 µM
SK-OV-3 ovarian
  GI50: 5.55 µM and 14.5 µM and 13.3 µM
  TGI: 11.7 µM and 29.1 µM and 27.3 µM
UO-31 renal
  GI50: 1.96 µM and 6.09 µM and 4.53 µM
  TGI: 8.84 µM and 21.2 µM and 20 µM
UACC-257 melanoma
  GI50: 0.863 µM and 2.01 µM and 1.96 µM
  TGI: 1.74 µM and 4.97 µM and 4.19 µM
KM12 colon
  GI50: 2.35 µM and 8.95 µM
  TGI: 8.01 µM and 21.6 µM
NCI-H23 lung
  GI50: 5.2 µM and 11.6 µM and 10.5 µM
  TGI: 12 µM and 24.5 µM and 24.1 µM
SF-539 CNS
  GI50: 4.88 µM and 10.8 µM and 9.77 µM
  TGI: 11.3 µM and 26.9 µM and 23.6 µM
HOP-92 NSCLC
  GI50: 0.708 µM
  TGI: 3.81 µM
RXF 393 renal
  GI50: 1.35 µM and 5.08 µM and 5.7 µM
  TGI: 6.39 µM and 18.9 µM and 19.6 µM
ACHN renal
  GI50: 3.61 µM and 11.7 µM and 10.2 µM
  TGI: 10.2 µM and 25.6 µM and 22.6 µM
HCT-15 colon
  GI50: 1.97 µM and 4.22 µM and 3.7 µM
  TGI: 6.88 µM and 18.3 µM and 15 µM
NCI-H460 lung
  GI50: 1.82 µM and 9.47 µM and 4.83 µM
  TGI: 6.69 µM and 28.4 µM and 23.3 µM
SW-620 colon
  GI50: 1.93 µM and 11.7 µM and 4.22 µM
  TGI: 8.01 µM and 25.4 µM and 16.2 µM
SK-MEL-28 melanoma
  GI50: 0.91 µM and 2.48 µM and 2.2 µM
  TGI: 1.66 µM and 7.16 µM and 5.98 µM
SNB-75 CNS
  GI50: 2.04 µM and 10 µM and 6.62 µM
  TGI: 9.16 µM and 22.4 µM and 21.8 µM
SNB-19 CNS
  GI50: 2.08 µM and 14 µM and 12.3 µM
  TGI: 8.34 µM and 30.8 µM and 27.3 µM
EKVX NSCLC
  GI50: 5.18 µM and 11.6 µM and 10.4 µM
  TGI: 12.7 µM and 29.2 µM and 30.4 µM
SF-268 CNS
  GI50: 5.2 µM and 11.5 µM
  TGI: 11.5 µM and 24.5 µM
OVCAR-8 ovarian
  GI50: 4.46 µM and 13.6 µM and 14 µM
  TGI: 11.4 µM and 28.5 µM and 28.8 µM
